From PMC11680018, “Study of Cytotoxicity of Spiro-Fused [3-Azabicyclo[3.1.0]hexane]oxindoles and Cyclopropa[a]pyrrolizidine-oxindoles Against Tumor Cell Lines” (Pharmaceuticals, 2024)
Like-named read-outs stand apart in the source and are kept apart here.

Columns and labels:
[1] = system: mouse colon carcinoma (CT26) cell line; experiment: MTS cell proliferation assay, CT26; format: cell-based; settings: for IC50: Mus musculus, MTS; for SI (selectivity index) CT26: ratio of cytotoxicity PBMC / CT26, calculated at 72 h
Method: (§1) Cancer cell lines are valuable in vitro model systems that are widely used in cancer research and drug discovery. Their use is mainly linked to their possibility to provide for experimental purposes an unlimited source of biological material. Here, the 24 and 72 h in vitro MTS assay was used to determine the antiproliferative activity of synthesized spiro-fused cyclopropa[a]pyrrolizidine-2,3′-oxindoles and [3-azabicyclo[3.1.0]hexane]-oxindoles against human erythroleukemia (K562), acute T cell leukemia (Jurkat), cervical carcinoma (HeLa), melanoma (Sk-mel-2), breast cancer adenocarcinoma (MCF-7) as well as mouse colon carcinoma (CT26) cell lines. […] The full results of these investigations are presented in the Supporting Information Figures S1–S6. […] An evaluation of the cytotoxicity of the selected compounds towards normal cells (peripheral blood mononuclear cells) was performed additionally to understand their respective relative selectivities. The selectivity index was obtained using the ratio of measured cytotoxicity between the PBMC cells and each of the cancer cell lines, and the results are presented in Table 3.
(§2) The human erythroleukemia (K-562), cervical carcinoma (HeLa) as well as mouse colon carcinoma (CT26) cell lines were obtained from the Bank of Cell Cultures of the Institute of Cytology of the Russian Academy of Sciences; the human melanoma (Sk-mel-2) cell line was obtained from the Bank of Cell Cultures of the Institute of Cytology and Genetics, Siberian Branch of the Russian Academy of Sciences. The acute T cell leukemia (Jurkat) cell line was obtained from the Bank of Cell Cultures of the Institute of Immunology of the Russian Academy of Medical Sciences. The peripheral blood mononuclear cells (PBMC) were isolated from the blood of healthy donors. K-562, Jurkat, MCF-7, PBMC and CT26 cells were grown on RPMI medium (Hyclone, GE Healthcare Life Sciences, Logan, UT, USA) supplemented with 10% (v/v) fetal bovine serum (Hyclone, GE Healthcare Life Sciences, Logan, UT, USA) and gentamicin (Sigma-Aldrich, St. Louis, MO, USA) at 37 °C in a humidified atmosphere with 5% CO2. HeLa and Sk-mel-2 cells were cultured with the same supplements and conditions in DMEM medium (Hyclone, GE Healthcare Life Sciences, Logan, UT, USA).
(§3) To evaluate the in vitro toxicity of the compounds synthesized, cells were seeded into 96-well plates at a density of 5 × 10^3 cells per well. On the next day, the tested compounds were added to the wells at concentrations ranging from 1 to 30 μg/mL, followed by incubation for 1 and 3 days. Cell proliferation was determined by adding 20 μL of MTS reagent (BioVision, Milpitas, CA, USA) stock solution per well. The plates were incubated for 2 h at 37 °C in a humidified, 5% CO2 atmosphere. The plates were then read at 495 nm using a plate spectrophotometer (Multiskan GO, Thermo Fisher Scientific, Waltham, MA, USA). All samples were measured in triplicate.

[2] = system: melanoma (Sk-mel-2) cell line; experiment: MTS cell proliferation assay, Sk-mel-2; format: cell-based, human; settings: for IC50: Homo sapiens, MTS; for SI (selectivity index) Sk-mel-2: ratio of cytotoxicity PBMC / Sk-mel-2, calculated at 72 h
Method: as §1, §2, §3

[3] = system: peripheral blood mononuclear cells (PBMC); experiment: MTS cytotoxicity towards normal cells, PBMC; format: cell-based; settings: Homo sapiens
Method: as §1, §2, §3

[4] = system: human erythroleukemia (K562) cell line; experiment: MTS cell proliferation assay, K562; format: cell-based; settings: for IC50: Homo sapiens, MTS; for SI (selectivity index) K562: ratio of cytotoxicity PBMC / K562, calculated at 72 h
Method: as §1, §2, §3

[5] = system: acute T cell leukemia (Jurkat) cell line; experiment: MTS cell proliferation assay, Jurkat; format: cell-based, human; settings: for IC50: Homo sapiens, Jurkat, MTS; for SI (selectivity index) Jurkat: ratio of cytotoxicity PBMC / Jurkat, calculated at 72 h
Method: as §1, §2, §3

[6] = system: breast cancer adenocarcinoma (MCF-7) cell line; experiment: MTS cell proliferation assay, MCF-7; format: cell-based, human; settings: for IC50: Homo sapiens, MTS; for SI (selectivity index) MCF-7: ratio of cytotoxicity PBMC / MCF-7, calculated at 72 h
Method: as §1, §2, §3

[7] = system: HeLa cells actin cytoskeleton; experiment: Actin cytoskeleton staining, confocal microscopy, HeLa; format: cell-based, human; settings: 10 μg/mL, 24 h; for HeLa cells with filopodia-like deformations: control cells 93%, lowest value over the compounds; for HeLa cells with granular actin distributed diffusely in the cytoplasm (stress fibers disappeared): maximum over the compounds
Method: It was found using confocal microscopy that incubation with spiro-fused [3-azabicyclo[3.1.0]hexane]oxindoles 4, 8, 17, 18, 22, 24 and cyclopropa[a]pyrrolizidine-2,3′-oxindole 2 led to significant changes in the HeLa cells’ actin cytoskeleton structure leading to the disappearance of stress fibers (granular actin was distributed diffusely in the cytoplasm in up to 38% of treated cells) and changes in the number of filopodia-like deformations (reduced from 93% in control cells to 64% after treatment). The impact on the Sk-mel-2 cells’ actin cytoskeleton structure was even greater: granular actin was distributed diffusely in the cytoplasm in up to 90% of treated cells while the number of filopodia-like deformations was reduced by up to 23%. Such changes in the cytoskeleton may indicate a change in the motor activity of cells, which may indicate a decrease in the ability of tumor cells to metastasize.
HeLa cells were seeded at a density of 2 × 10^5 cells per dish onto a petri dish with cover slips and incubated for 24 h. After that, cells were treated with chosen compounds (10 μg/mL) for 24 h. The medium was removed and cells were fixed with 4% paraformaldehyde (Sigma-Aldrich, St. Louis, MO, USA), washed three times with PBS, and permeabilized with 0.3% Triton-X100 (Sigma-Aldrich, St. Louis, MO, USA). The cells were rinsed three times with PBS. Actin filaments (microfilaments) were stained with rhodamine–phalloidin (Invitrogen, Carlsbad, CA, USA) at 37 °C for 15 min. The samples were rinsed three times with PBS, followed by embedding in Fluoroshield medium (Sigma-Aldrich, St. Louis, MO, USA). Cells were imaged using an Axio Observer Z1 confocal microscope (Carl Zeiss MicroImaging GmbH, Jena, Germany). In each experiment, at least 30 cells were imaged. Images were analyzed by a pathologist blinded to the treatment mode used for each group using ImageJ software, 1.52v.

[8] = system: cervical carcinoma (HeLa) cell line; experiment: MTS cell proliferation assay, HeLa; format: cell-based, human; settings: for IC50: Homo sapiens, HeLa, MTS; for SI (selectivity index) HeLa: ratio of cytotoxicity PBMC / HeLa, calculated at 72 h
Method: as §1, §2, §3

[9] = read-out: IC50 CT26 24 h, CT26, 24 h
[10] = CT26, 72 h, read-out: IC50 CT26 72 h
[11] = read-out: IC50 Sk-mel-2 24 h, Sk-mel-2, 24 h
[12] = Sk-mel-2, 72 h, read-out: IC50 Sk-mel-2 72 h
[13] = read-out: IC50 K562 24 h, K562, 24 h
[14] = K562, 72 h, read-out: IC50 K562 72 h
[15] = read-out: IC50 Jurkat 24 h, 24 h
[16] = 72 h, read-out: IC50 Jurkat 72 h
[17] = MCF7, read-out: IC50 MCF-7 24 h, MCF-7, 24 h
[18] = MCF7, MCF-7, 72 h, read-out: IC50 MCF-7 72 h

SMILES | IC50 [1, 9] [µM] | IC50 [1, 10] [µM] | IC50 [2, 11] [µM] | IC50 [2, 12] [µM] | IC50 [4, 13] [µM] | IC50 [4, 14] [µM] | IC50 [5, 15] [µM] | IC50 [5, 16] [µM] | IC50 [6, 17] [µM] | IC50 [6, 18] [µM] | IC50 ([8]; read-out: IC50 HeLa 24 h, 24 h) [µM] | SI (selectivity index) CT26 [1] | SI (selectivity index) Sk-mel-2 [2] | IC50 ([3]; 72 h, read-out: IC50 PBMC 72 h) [µM] | IC50 ([3]; read-out: IC50 PBMC 24 h, 24 h) [µM] | SI (selectivity index) K562 [4] | SI (selectivity index) Jurkat [5] | SI (selectivity index) MCF-7 [6] | HeLa cells with filopodia-like deformations [7] [%] | HeLa cells with granular actin distributed diffusely in the cytoplasm (stress fibers disappeared) [7] | also measured
O=C1Nc2ccc([N+](=O)[O-])cc2C12N1CCCC1C1(c3ccccc3)C(c3ccccc3)C12c1ccccc1 (stereo not drawn) [Compound 2] | > 40 | 23 ± 2 | 14 ± 1 | 12 ± 1 | 29 ± 2 | 8 ± 1 | 18 ± 2 | 4 ± 1 | > 40 | > 40 | > 40 | 4 | 7 | 84 ± 8 | 121 ± 8 | 11 | 22 | 2 | ≥ 64 | up to 38% | IC50 ([8]; 72 h, read-out: IC50 HeLa 72 h): 12 ± 1 µM; SI (selectivity index) HeLa [8]: 7
CC[C@H](C)C1NC2(C(=O)Nc3ccccc32)C2(c3ccccc3)C(C(=O)OC)C12c1ccccc1 (stereo partly drawn) [Compound 4] | > 40 | 21 ± 2 | > 40 | 9 ± 1 | 32 ± 2 | 6 ± 1 | 11 ± 1 | 4 ± 1 | > 40 | > 40 | > 40 | 4 | 11 | 92 ± 9 | 174 ± 17 | 14 | 22 | 2 | ≥ 64 | up to 38% | IC50 ([8]; 72 h, read-out: IC50 HeLa 72 h): 9 ± 1 µM; SI (selectivity index) HeLa [8]: 11
CC(C)C1NC2(C(=O)Nc3ccccc32)C2(c3ccccc3)C(c3ccccc3)C12c1ccccc1 (stereo not drawn) [Compound 8] | > 40 | 11 ± 1 | 15 ± 1 | 8 ± 1 | 25 ± 1 | 6 ± 1 | 11 ± 1 | 2 ± 1 | > 40 | > 40 | > 40 | 4 | 6 | 47 ± 5 | 83 ± 7 | 7 | 22 | 1 | ≥ 64 | up to 38% | IC50 ([8]; 72 h, read-out: IC50 HeLa 72 h): 8 ± 1 µM; SI (selectivity index) HeLa [8]: 6
COC(=O)C1C2(c3ccccc3)C(Cc3ccc(O)cc3)NC3(C(=O)Nc4ccccc43)C12c1ccccc1 (stereo not drawn) [Compound 17] | > 40 | 23 ± 2 | > 40 | 14 ± 2 | 35 ± 5 | 14 ± 1 | 12 ± 1 | 8 ± 1 | > 40 | > 40 | 31 ± 2 | 5 | 8 | 112 ± 9 | 127 ± 16 | 8 | 15 | 2 | ≥ 64 | up to 38% | IC50 ([8]; 72 h, read-out: IC50 HeLa 72 h): 14 ± 2 µM; SI (selectivity index) HeLa [8]: 8

The next lines start with results.

IC50 [1, 9] [µM] | IC50 [1, 10] [µM] | IC50 [2, 11] [µM] | IC50 [2, 12] [µM] | IC50 [4, 13] [µM] | IC50 [4, 14] [µM] | IC50 [5, 15] [µM] | IC50 [5, 16] [µM] | IC50 [6, 17] [µM] | IC50 [6, 18] [µM] | IC50 ([8]; read-out: IC50 HeLa 24 h, 24 h) [µM] | SMILES | SI (selectivity index) CT26 [1] | SI (selectivity index) Sk-mel-2 [2] | IC50 ([3]; 72 h, read-out: IC50 PBMC 72 h) [µM] | IC50 ([3]; read-out: IC50 PBMC 24 h, 24 h) [µM] | SI (selectivity index) K562 [4] | SI (selectivity index) Jurkat [5] | SI (selectivity index) MCF-7 [6] | HeLa cells with filopodia-like deformations [7] [%] | HeLa cells with granular actin distributed diffusely in the cytoplasm (stress fibers disappeared) [7] | also measured
27 ± 2 | 10 ± 1 | 29 ± 2 | 10 ± 1 | 14 ± 2 | 6 ± 1 | 6 ± 1 | 2 ± 1 | > 40 | 14 ± 1 | 23 ± 2 | NC(=O)CC1NC2(C(=O)Nc3ccccc32)C2(c3ccccc3)C(c3ccccc3)C12c1ccccc1 (stereo not drawn) [Compound 18] | 1 | 1 | 12 ± 1 | 29 ± 3 | 2 | 6 | 1 | ≥ 64 | up to 38% | IC50 ([8]; 72 h, read-out: IC50 HeLa 72 h): 10 ± 2 µM; SI (selectivity index) HeLa [8]: 1
> 40 | > 40 | > 40 | 8 ± 1 | > 40 | 10 ± 1 | 22 ± 2 | 4 ± 1 | > 40 | > 40 | 20 ± 2 | CSCCC1NC2(C(=O)Nc3ccccc32)C2(c3ccccc3)C(c3ccccc3)C12c1ccccc1 (stereo not drawn) [Compound 24] | 1 | 12 | 92 ± 11 | 113 ± 14 | 9 | 23 | 1 | ≥ 64 | up to 38% | IC50 ([8]; 72 h, read-out: IC50 HeLa 72 h): 8 ± 1 µM; SI (selectivity index) HeLa [8]: 12
